Results on one molecule are retold here after patent US11407781B2, “Equatorially modified polymer linked multimers of guanosine-3′, 5′-cyclic monophosphates” (GRAYBUG VISION, INC., priority 2016, dated 2022).

The data set is described as follows: Determination of lipophilicity by RP-18 HPLC retention (log k′g). Format: physicochemical. The conditions noted are these: RP-18 reversed phase HPLC, gradient elution, ion pair chromatography with triethylammonium cation. From the text: Lipophilicity information is thus often only obtained by fragment analysis and corresponding calculations.
An established HPLC method, which is based on retention data on RP-18 reversed phase silica during gradient elution, was used for the determination of lipohilicity.
Instead of log P the method yields the descriptor log k′g, ranking analytes according to their lipophilicity on a logarithmic scale as well. Since charged molecules such as cyclic nucleotides have only hardly any retention on reversed phases, ion pair chromatography with the lipophilic triethylammonium cation is used.

With `CC(C)c1ccc(Sc2nc3c(=O)n4cc(-c5ccccc5)[nH]c4nc3n2[C@@H]2O[C@@H]3CO[P@@](=O)(S)O[C@H]3[C@H]2O)cc1` (single isomer, unassigned) [Compound 35, 8-(4-Isopropylphenylthio)-β-phenyl-1,N^2-ethenoguanosine-3′,5′-cyclic monophosphorothioate, Rp-isomer], the “log k′g” value came out at 3.815.
